Biological target: T1, aromatase (CYP19) (Homo sapiens, UniProt P11511)
T1 construct: purchased BD Biosciences Inc. (U.S.A.)
T1 sequence (P11511 1-503): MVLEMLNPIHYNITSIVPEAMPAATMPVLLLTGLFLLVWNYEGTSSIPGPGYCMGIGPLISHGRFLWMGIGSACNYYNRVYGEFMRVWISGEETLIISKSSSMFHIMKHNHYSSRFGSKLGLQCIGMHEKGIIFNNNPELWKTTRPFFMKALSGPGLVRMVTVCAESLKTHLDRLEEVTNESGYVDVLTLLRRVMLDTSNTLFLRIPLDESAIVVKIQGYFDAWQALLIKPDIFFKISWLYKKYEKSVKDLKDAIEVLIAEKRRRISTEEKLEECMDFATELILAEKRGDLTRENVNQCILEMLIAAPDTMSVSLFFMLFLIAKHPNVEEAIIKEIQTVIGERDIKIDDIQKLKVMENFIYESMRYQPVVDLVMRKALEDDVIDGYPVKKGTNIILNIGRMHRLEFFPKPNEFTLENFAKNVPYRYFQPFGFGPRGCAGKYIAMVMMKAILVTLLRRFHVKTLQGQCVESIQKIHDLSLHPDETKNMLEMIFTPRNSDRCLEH
Assay: Measurement of aromatase-inhibitory activity (fluorometric HFC formation, 96-well microplate, BD Biosciences reagents)
Assay type: biochemical
Conditions: for inhibition at 0.18 µM: concentration 0.18 μM; for inhibition at 0.18 µM / inhibition at 0.53 µM / inhibition at 1.6 µM / inhibition at 4.8 µM: average of three experiments, read-out: Inhibitory rate; for inhibition at 0.53 µM: concentration 0.53 μM; for inhibition at 1.6 µM: concentration 1.60 μM; for inhibition at 4.8 µM: concentration 4.80 μM; for IC50: text b76, components
Protocol: That is, by using a 96-well microplate, after 144 μL of a previously prepared NADPH-producing system solution (NADPH-Cofactor Mix) and 6 μL of an extract solution of test samples were mixed, and incubated at 37° C. for 10 minutes. Then, 100 μL of a solution (Enzyme Substrate Mix) containing an enzyme and a substrate was mixed with the above mixture, and reacted at 37° C. for 30 minutes. Thereafter, 75 μL of a reaction-terminating solution was added to the above, and an amount of a formed HFC (7-hydroxy-4-trifluoromethyl coumarin) which is a metabolite of the substrate was obtained by measuring a fluorescent intensity at an excitation wavelength of 409 nm and a fluorescent wavelength of 538 nm using a plate reader ([…]luor, TECAN). Incidentally, 75 μL of stop solution was added to a blank after incubation for 10 minutes, in place of adding the solution of enzyme and substrate. Aromatase inhibitory rate was calculated by the formula 1.
Aromatase inhibitory rate (%)={1−[…]}×100 [Numerical formula 1]
A=(Absorbance after enzymatic reaction without test sample−Absorbance of blank thereof) B=(Absorbance after enzymatic reaction with each test sample−Absorbance of each blank thereof)
Also, to avoid a non-specific inhibitory action (for example, protein coagulation action due to tannin), a control protein which incidents to the reagent was added to the NADPH-producing system solution.
With regard to solution of test sample, the concentration was stepwisely diluted and an inhibitory rate at each concentration was obtained, and from the results, the concentration of 50% inhibition (IC50 value) was obtained according to the interpolation method.

SMILES | aromatase-inhibitory activity, concentration dependency in words | inhibition at 0.18 µM [%] | inhibition at 0.53 µM [%] | inhibition at 1.6 µM [%] | inhibition at 4.8 µM [%] | IC50 [µM]
COc1cc(C2Oc3cc(C4Oc5cc(O)cc(O)c5C(=O)C4O)ccc3OC2CO)ccc1O (centres unmarked) [Silybin, silybin] | concentration-dependent inhibitory activity | 8.7 ± 9.3 | 12.4 ± 4.6 | 20.6 ± 1.2 | 59.4 ± 7.1 | 4.86
COc1ccc(-c2oc3c(CC=C(C)C)c(O[C@@H]4O[C@H](CO)[C@@H](O)[C@H](O)[C@H]4O)cc(O)c3c(=O)c2O[C@@H]2O[C@@H](C)[C@H](O)[C@@H](O)[C@H]2O)cc1 [Icariin, icariin] |  | 30.4 ± 1.5 | 48.1 ± 6.9 | 63.5 ± 12.6 | 67.7 ± 21.3 | 0.754

Reference: patent US20100255127A1, “AROMATASE INHIBITOR” (KRACIE PHARMA, LTD., priority 2007, published 2010)
